Experimental data published in patent US10716791B2, “Inhibitors of peptidyl arginine deiminase (PAD) enzymes and uses thereof” (UNIVERSITY HEALTH NETWORK, priority 2015, dated 2020).
Read-outs that look alike come from different tables or passages of the source.

Tests used:
PAD1 [1] = target: T1, PAD1 (Homo sapiens (Human), UniProt Q9ULC6); assay: Inhibition of PAD activity (Example 53), PAD1; settings: Table 5; for Ki: read-out: PAD1 Ki ± std error
Method: (§1) Materials: PAD1, PAD2, PAD3 and PAD4 were purchased from commercial sources. Assay buffer: 50 mM Tris pH 7.5, 100 mM NaCl, 10 mM CaCl2, 5 mM DTT.
(§2) The inhibitor (12.5 μL of stock) was mixed with appropriate amount of substrate (BAEE) stock solution and preincubated at 37° C. for a period in the range of 0-60 min. The reaction was initiated by the addition of the enzyme. The reaction samples were incubated for a period in the range of 0-60 min. […] Samples were cooled on ice, vortexed and centrifuged. 200 μL aliquots were transferred to the 96-well plate and the absorbance was measured at 530 nm and the remaining activity was computed. The remaining activity data were plotted versus inhibitor concentration and fitted to the dose-response equation to calculate IC50.

PAD2 = PAD2 (Mus musculus (Mouse), UniProt Q08642); assay: Inhibition of PAD activity (Example 53), PAD2; settings: for remaining activity at 100 µM / remaining activity at 1000 µM: read-out: Remaining activity of PAD2
Sequence of PAD2 (Q08642 whole entry): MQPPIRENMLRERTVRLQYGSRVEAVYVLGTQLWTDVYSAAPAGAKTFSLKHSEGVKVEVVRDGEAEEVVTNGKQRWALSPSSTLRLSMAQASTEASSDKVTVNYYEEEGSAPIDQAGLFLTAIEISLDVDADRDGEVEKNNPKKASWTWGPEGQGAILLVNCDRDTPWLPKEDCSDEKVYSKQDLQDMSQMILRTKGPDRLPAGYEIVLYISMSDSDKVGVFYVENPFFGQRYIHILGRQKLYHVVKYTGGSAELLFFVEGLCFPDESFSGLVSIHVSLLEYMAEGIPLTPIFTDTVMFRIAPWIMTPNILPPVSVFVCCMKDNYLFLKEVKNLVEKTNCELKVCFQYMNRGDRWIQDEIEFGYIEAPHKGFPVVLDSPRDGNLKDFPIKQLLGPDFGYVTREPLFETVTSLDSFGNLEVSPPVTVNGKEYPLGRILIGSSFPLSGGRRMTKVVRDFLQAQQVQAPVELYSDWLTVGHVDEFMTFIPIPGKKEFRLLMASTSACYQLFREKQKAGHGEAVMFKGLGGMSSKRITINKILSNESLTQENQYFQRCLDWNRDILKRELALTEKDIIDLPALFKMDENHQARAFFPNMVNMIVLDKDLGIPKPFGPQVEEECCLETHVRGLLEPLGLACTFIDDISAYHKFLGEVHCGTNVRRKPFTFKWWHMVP
Method: as §1, §2

PAD1 [2] = target: T1, PAD1; assay: Enzyme inhibition kinetics (Example 54), hPAD1; assay type: biochemical; settings: for Ki: Table 6
mPAD2 = mPAD2 (Mus musculus (Mouse), UniProt Q08642); assay: Enzyme inhibition kinetics (Example 54), mPAD2; assay type: biochemical; settings: for Ki: Table 6; for Selectivity ratio of inhibition, mPAD2 (PAD4): mPAD2 versus PAD4
Sequence of mPAD2 (Q08642 whole entry): as above

PAD4 [3] = target: T2, PAD4 (Homo sapiens (Human), UniProt Q9UM07); assay: Enzyme inhibition kinetics (Example 54), hPAD4; assay type: biochemical; settings: for Ki: Table 6
T2 sequence (Q9UM07 whole entry): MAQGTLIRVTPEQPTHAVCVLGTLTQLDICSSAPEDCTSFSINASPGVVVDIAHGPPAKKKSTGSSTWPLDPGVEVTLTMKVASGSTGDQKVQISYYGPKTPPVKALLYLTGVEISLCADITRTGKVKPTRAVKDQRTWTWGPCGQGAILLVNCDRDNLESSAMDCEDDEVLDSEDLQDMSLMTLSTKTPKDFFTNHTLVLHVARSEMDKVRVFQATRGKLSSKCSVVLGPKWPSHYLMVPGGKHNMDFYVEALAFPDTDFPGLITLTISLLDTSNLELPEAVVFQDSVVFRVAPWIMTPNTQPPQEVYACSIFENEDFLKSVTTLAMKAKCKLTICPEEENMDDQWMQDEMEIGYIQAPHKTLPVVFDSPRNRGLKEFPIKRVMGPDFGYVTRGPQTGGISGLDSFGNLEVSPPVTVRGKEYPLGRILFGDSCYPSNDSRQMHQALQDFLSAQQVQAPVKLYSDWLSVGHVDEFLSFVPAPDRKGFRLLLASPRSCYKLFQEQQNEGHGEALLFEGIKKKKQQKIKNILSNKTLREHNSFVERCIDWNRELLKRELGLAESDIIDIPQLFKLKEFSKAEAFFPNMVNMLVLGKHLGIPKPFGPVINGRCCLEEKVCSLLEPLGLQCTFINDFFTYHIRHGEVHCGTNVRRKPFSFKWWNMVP

CHO cells = assay: CHO cell toxicity assay; assay type: cell-based; settings: Cricetulus griseus
PADs = assay: Enzymatic assays with hPAD1, mPAD2 and hPAD4, stated for PADs overall; assay type: biochemical; settings: summary of Table 6; read-out: Ki, activity towards PADs
PAD4 [4] = target: T2, PAD4; assay: Inhibition of PAD activity (Example 53), PAD4; settings: for PAD4 Ki ± std error / Ki: Table 5; for Ki: read-out: PAD4 Ki ± std error; for remaining activity at 100 µM / remaining activity at 1000 µM: read-out: Remaining activity of PAD4
Method: as §1, §2

PAD enzymes = settings: most potent non-peptidic compounds from the literature; cited from earlier work
animal models of MS = settings: cited from earlier work
[5] = read-out: PAD2 Ki ± std error, Table 5
[6] = read-out: PAD2 inhibition constant Ki ± Std Error, Table 1

T1 sequence (Q9ULC6 whole entry): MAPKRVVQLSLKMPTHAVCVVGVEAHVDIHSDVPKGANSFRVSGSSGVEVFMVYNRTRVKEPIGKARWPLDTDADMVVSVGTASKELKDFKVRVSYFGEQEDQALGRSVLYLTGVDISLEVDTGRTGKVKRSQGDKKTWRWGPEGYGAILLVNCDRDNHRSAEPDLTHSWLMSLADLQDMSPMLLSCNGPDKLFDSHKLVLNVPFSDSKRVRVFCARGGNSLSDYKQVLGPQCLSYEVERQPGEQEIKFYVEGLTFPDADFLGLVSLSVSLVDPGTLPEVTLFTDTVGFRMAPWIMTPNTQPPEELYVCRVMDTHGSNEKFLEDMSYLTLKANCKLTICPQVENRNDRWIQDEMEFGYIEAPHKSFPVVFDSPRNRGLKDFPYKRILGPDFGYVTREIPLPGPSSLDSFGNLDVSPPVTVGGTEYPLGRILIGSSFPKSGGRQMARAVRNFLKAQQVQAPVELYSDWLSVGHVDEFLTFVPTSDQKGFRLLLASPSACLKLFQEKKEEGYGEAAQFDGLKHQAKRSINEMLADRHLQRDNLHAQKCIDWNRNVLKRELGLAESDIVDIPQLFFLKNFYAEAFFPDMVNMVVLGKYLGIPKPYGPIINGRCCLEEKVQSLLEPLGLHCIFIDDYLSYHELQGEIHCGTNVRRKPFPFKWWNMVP

Cn1cccc1C(=O)N[C@@H](Cn1ccnc1)C(=O)NCc1ccccc1 [KP-305]
Ki (PAD1 [1]): 0.147 ± 0.052 mM | Ki (PAD2; [5]): 58 ± 5 µM

CC(C)NC(=O)[C@H](CCN1CCN(C)CC1)NC(=O)N1CCOCC1 [KP-287, (S)—N-(1-(Isopropylamino)-4-(4-methylpiperazin-1-yl)-1-oxobutan-2-yl)morpholine-4-carboxamide]
Ki (PAD1 [2]): > 10000 µM | Ki (mPAD2): > 10 mM | Ki (PAD4 [3]): > 10000 µM | IC50 (CHO cells): > 2 mM | Ki (PADs): 200 to 500 µM | PAD1 Ki ± std error (PAD1 [1]): Some inhibition but IC50 not calculated - no Ki | Ki (PAD2; [5]): 600 ± 1330 µM | PAD4 Ki ± std error (PAD4 [4]): No inhibition up to 10 mM

CC(C)NC(=O)[C@H](CN1CCN(C)CC1)NC(=O)N1CCCCC1 [KP-290]
PAD4 Ki ± std error (PAD4 [4]): No inhibition up to 10 mM

CN(C)[C@@H]1C(O)=C(C(N)=O)C(=O)[C@@]2(O)C(O)=C3C(=O)c4c(O)ccc(Cl)c4[C@@](C)(O)[C@H]3C[C@@H]12 [chlortetracycline]
IC50 (PAD enzymes): 100 µM

CC(C)NC(=O)[C@H](Cn1ccnc1)NC(=O)N1CCOCC1 [KP-292]
Ki (PAD4 [4]): ~14.9 mM

O=C(Nc1ccccc1)[C@H](CC(=O)N1CCNCC1)NC(=O)N1CCOCC1 [KP-229]
remaining activity at 100 µM (PAD2): 54 ± 2.7% | remaining activity at 1000 µM (PAD2): 63.3 ± 2% | remaining activity at 100 µM (PAD4 [4]): 100 ± 5.5% | remaining activity at 1000 µM (PAD4 [4]): 100 ± 2.6%

O=C(N[C@@H](CC(=O)N1CCNCC1)C(=O)Nc1ccccc1)c1ccco1 [KP-230]
remaining activity at 100 µM (PAD2): 55.1 ± 0.5% | remaining activity at 1000 µM (PAD2): 33.5 ± 0.4% | remaining activity at 100 µM (PAD4 [4]): 96.9 ± 7.6% | remaining activity at 1000 µM (PAD4 [4]): 82.4 ± 1.7%

O=C(N[C@@H](CCn1ccnn1)C(=O)NCc1ccccc1)c1ccc(F)cc1 [KP-316, (S)—N-(1-(Benzylamino)-1-oxo-4-(1[H]-1,2,3-triazol-1-yl)butan-2-yl)-4-fluorobenzamide]
Ki (PAD1 [2]): > 10000 µM | Ki (PAD1 [1]): 77.7 ± 91.5 mM | PAD2 Ki ± std error (PAD2; Table 5): Some inhibition but IC50 can't be calculated - no Ki | PAD4 Ki ± std error (PAD4 [4]): Some inhibition but IC50 can't be calculated - no Ki

O=C(N[C@@H](Cn1ccnc1)C(=O)OCc1ccccc1)c1ccco1 [KP-300]
PAD1 Ki ± std error (PAD1 [1]): No inhibition up to 10 mM | Ki (PAD2; [5]): 739 ± 339 µM | Ki (PAD4 [4]): 1.07 ± 0.427 mM

CC(C)NC(=O)[C@H](CCN1CCN(C)CC1)NC(=O)C1CCCCC1 [KP-295, (S)—N-(1-(Isopropylamino)-4-(4-methylpiperazin-1-yl)-1-oxobutan-2yl) cyclohexanecarboxamide]
Ki (mPAD2): > 10 mM | Ki (PAD4 [3]): > 10000 µM | PAD2 Ki ± std error (PAD2; Table 5): No inhibition up to 10 mM | PAD4 Ki ± std error (PAD4 [4]): No inhibition up to 10 mM

CC(C)(C)OC(=O)N[C@H](CCN=[N+]=[N-])C(=O)NCc1ccccc1 [KP-310]
Ki (PAD1 [1]): 3.43 ± 1.94 mM | Ki (PAD2; [5]): 1430 ± 186 µM | Ki (PAD4 [4]): 1.45 ± 0.187 mM

COC(=O)[C@H](CCN1CCNCC1)NC(=O)c1ccco1 [KP-226, (S)-Methyl 2-(furan-2-carboxamido)-4-(piperazin-1-yl)butanoate]
Ki (PAD2; [5]): 286 ± 27 µM | Ki (PAD2; [6]): 19.7 ± 2 µM

COC(=O)[C@H](CN1CCNCC1)NC(=O)C1CCCCC1 [KP-224]
Ki (PAD2; [6]): 21.3 ± 3.4 µM

CC(C)NC(=O)[C@H](CCn1cnc(CC#N)c1)NC(=O)c1ccco1 [KP-288, (S)—N-(4-(4-(Cyanomethyl)-1[H]-imidazol-1-yl)-1-(isopropylamino)-1-oxobutan-2-yl)furan-2-carboxamide]
inhibitor efficacy towards hPAD1 in comparison to other isozymes (PAD1 [2]): at least 3 fold | Ki (PAD1 [2]): 353 ± 23 µM | Selectivity ratio of inhibition, hPAD1 (PAD2) (PAD1 [2]; hPAD1 versus PAD2, ratios greater than 2-fold suggest selectivity): 2.8 | Selectivity ratio of inhibition, hPAD1 (PAD4) (PAD1 [2]; hPAD1 versus PAD4): 1.6 | Ki (mPAD2): 1 ± 0.876 mM | Selectivity ratio of inhibition, mPAD2 (PAD1) (mPAD2; mPAD2 versus PAD1): 0.4 | Selectivity ratio of inhibition, mPAD2 (PAD4) (mPAD2): 0.6 | Ki (PAD4 [3]): 591 ± 77 µM | Selectivity ratio of inhibition, hPAD4 (PAD1) (PAD4 [3]; hPAD4 versus PAD1): 0.6 | IC50 (CHO cells): > 2 mM | Ki (PAD1 [1]): 0.914 ± 0.059 mM | Ki (PAD2; [5]): 176 ± 62 µM | Ki (PAD4 [4]): 0.591 ± 0.077 mM

COC(=O)[C@H](CN1CCNCC1)NC(=O)c1ccco1 [KP-225, (S)-Methyl 2-(furan-2-carboxamido)-3-(piperazin-1-yl)propanoate]
remaining activity at 100 µM (PAD2): 86.6 ± 3% | remaining activity at 1000 µM (PAD2): 70.8 ± 1.7% | remaining activity at 100 µM (PAD4 [4]): 78.7 ± 9.5% | remaining activity at 1000 µM (PAD4 [4]): 62.2 ± 2.7%

O=C(NCc1ccccc1)[C@H](Cn1ccnc1)NC(=O)N1CCCCC1 [KP-304]
Ki (PAD2; [5]): 5300 ± 7830 µM | PAD4 Ki ± std error (PAD4 [4]): No inhibition up to 10 mM

O=C(N[C@@H](CCn1ccnc1)C(=O)NCc1ccccc1)c1ccco1 [KP-301, (S)—N-(1-(Benzylamino)-4-(1 [H]-imidazol-1-yl)-1-oxobutan-2-yl) furan-2-carboxamide]
Ki (PAD1 [2]): > 10000 µM | Ki (mPAD2): > 10 mM | Ki (PAD4 [3]): > 10000 µM | Ki (PADs): 200 to 500 µM | PAD1 Ki ± std error (PAD1 [1]): No inhibition up to 10 mM | PAD2 Ki ± std error (PAD2; Table 5): No inhibition up to 10 mM | PAD4 Ki ± std error (PAD4 [4]): No inhibition up to 10 mM

CC(C)NC(=O)[C@H](CCn1ccnc1)NC(=O)c1ccco1 [KP-286, (S)—N-(4-(1[H]-imidazol-1-yl)-1-(isopropylamino)-1-oxobutan-2-yl) furan-2-carboxamide]
Ki (PAD1 [2]): 964 ± 689 µM | Ki (mPAD2): 0.554 ± 0.093 mM | IC50 (CHO cells): 0.546 ± 0.136 mM | Ki (PAD1 [1]): 2.5 ± 1.78 mM | Ki (PAD2; [5]): 554 ± 93 µM

O=C(N[C@@H](CN1CCNCC1)C(=O)NCc1ccccc1)c1ccco1 [KP-227, (S)—N-(1-(Benzylamino)-1-oxo-3-(piperazin-1-yl)propan-2-yl)furan-2-carboxamide]
remaining activity at 100 µM (PAD2): 63.7 ± 0.6% | remaining activity at 1000 µM (PAD2): 68.2 ± 2.3% | remaining activity at 100 µM (PAD4 [4]): 100 ± 1.3% | remaining activity at 1000 µM (PAD4 [4]): 82.2 ± 2.4%

CC(C)(C)OC(=O)N[C@@H](CN=[N+]=[N-])C(=O)NCc1ccccc1 [KP-306]
PAD1 Ki ± std error (PAD1 [1]): No inhibition up to 10 mM | PAD2 Ki ± std error (PAD2; Table 5): No inhibition up to 10 mM | PAD4 Ki ± std error (PAD4 [4]): No inhibition up to 10 mM

COC(=O)[C@H](Cn1ccnc1)NC(=O)c1ccco1 [KP-298]
Ki (PAD1 [1]): 0.785 ± 0.384 mM | Ki (PAD2; [5]): 662 ± 210 µM | Ki (PAD4 [4]): 1.24 ± 1.39 mM

O=C(N[C@@H](CCN1CCNCC1)C(=O)NCc1ccccc1)c1ccco1 [KP-228, (S)—N-(1-(Benzylamino)-1-oxo-4-(piperazin-1-yl)butan-2-yl)furan-2-carboxamide]
remaining activity at 100 µM (PAD2): 58.6 ± 3.6% | remaining activity at 1000 µM (PAD2): 31.8 ± 4.9% | remaining activity at 100 µM (PAD4 [4]): 96.4 ± 10.4% | remaining activity at 1000 µM (PAD4 [4]): 82.1 ± 7.2%

CC(C)NC(=O)[C@H](CN1CCN(C)CC1)NC(=O)N1CCOCC1 [KP-291]
PAD1 Ki ± std error (PAD1 [1]): No inhibition up to 10 mM | PAD2 Ki ± std error (PAD2; Table 5): No inhibition up to 10 mM | PAD4 Ki ± std error (PAD4 [4]): No inhibition up to 10 mM

O=C(N[C@@H](CCO)C(=O)Nc1ccccc1)OCc1ccccc1 [KP-231]
remaining activity at 100 µM (PAD2): 44.4 ± 0.5% | remaining activity at 1000 µM (PAD2): 45.5 ± 1.1% | remaining activity at 100 µM (PAD4 [4]): 100 ± 4.6% | remaining activity at 1000 µM (PAD4 [4]): 82.3 ± 3.7%

N=C(N)CCl [Compound 2CA, 2-chloroacetamidine]
MS disease (animal models of MS; four animal models of MS): attenuated MS disease | PAD activity in the brain (animal models of MS; four animal models of MS): decreased PAD activity in the brain | amount of citrullinated protein (animal models of MS; four animal models of MS): decreased the amount of citrullinated protein | disease after therapy cessation at 6 months (animal models of MS; one murine model): fully progressive clinical disease re-emerged promptly | disease with early and prolonged administration (animal models of MS; one murine model): essentially prevented the disease

CC(C)(C)OC(=O)N[C@H](CCO)C(=O)NCc1ccccc1 [KP-311]
PAD1 Ki ± std error (PAD1 [1]): No inhibition up to 10 mM | PAD2 Ki ± std error (PAD2; Table 5): No inhibition up to 10 mM | PAD4 Ki ± std error (PAD4 [4]): No inhibition up to 10 mM

CC(C)NC(=O)[C@H](CCN1CCN(C)CC1)NC(=O)c1ccco1 [KP-289, (S)—N-(1-(Isopropylamino)-4-(4-methylpiperazin-1-yl)-1-oxobutan-2-yl)furan-2-carboxamide]
Ki (mPAD2): 1.84 ± 2.42 mM | Selectivity ratio of inhibition, mPAD2 (PAD4) (mPAD2): 0.3 (PAD4) | Ki (PAD4 [3]): 488 ± 47 µM | Selectivity ratio of inhibition, hPAD4 (PAD2) (PAD4 [3]; hPAD4 versus PAD2): 3.7 (PAD2) | IC50 (CHO cells): > 2 mM | Ki (PAD2; [5]): 1790 ± 2420 µM | Ki (PAD4 [4]): 0.488 ± 0.047 mM
